From PMC9415903, “Confocal Laser Scanning Microscopy and Model Membranes to Study Translocation Mechanisms of Membrane Active Peptides” (Pharmaceutics, 2022)
“Also recorded” adds a separate entry of the source.

Experiments:
[1] = Peptide internalization and Alexa Fluor 488 efflux in neutral GUVs, confocal laser scanning microscopy; type: in vitro ADME; settings: POPC/chol 80/20 mol% GUVs; 2 µM peptide; room temperature; up to 30 min; CLSM
Method: (§1) Giant unilamellar vesicles (GUVs) were obtained by the electroformation method as previously indicated. For that, 30 µL of different lipid mixtures (detailed in the Results section) were dissolved in chloroform and spread on indium tin oxide (ITO) glass slides (Sigma-Aldrich, Schnelldorf, Germany). After drying, the lipid film was gently hydrated with 200 mM sucrose dissolved in double distilled water, mixed with a fluorescent tracer, Alexa Fluor 488-maleimide (AF 488), at a concentration of 10 µM. The freshly prepared GUVs were then transferred in 180 mM glucose solution containing 20 mM Hepes, with a pH of 7.5. The samples were observed by confocal microscope at room temperature.
(§2) The experiments were performed using a confocal laser scanning microscope (Nikon Ti-E, Tokyo, Japan), equipped with LU4 Four-Laser Module with AOTF, a Plan Fluor 40x DIC M N2 objective and a DS-F1camera. An Alexa Fluor 488 tracer was excited using a line of 457–514 nm argon ion laser, TAMRA-TAT peptide with a diode laser emitting at 561 nm, and Dy647P1-peptides with a 642 nm diode laser. To observe the accumulation and internalization of peptides and the efflux of fluorescent tracers, the freshly prepared GUVs were transferred to a solution of glucose containing 2 µM fluorescently labeled peptide, to provide a homogeneous distribution of peptides to membranes. For each type of experiment, at least 10–15 GUVs with a diameter of 30–40 μm from two independent experiments were analyzed. Successive images were collected using the Nis-Elements Advanced Research imaging software (Nikon) and then quantification of fluorescence was performed using Fiji ImageJ [14]. The resulting data were then analyzed with Origin Pro 8.5 (OriginLab Corporation, Northampton, MA, USA).
(§3) For the present study, GUVs mimicking the mammalian plasma membrane were prepared as follows: POPC/cholesterol 80/20 mol%, POPC/POPE/cholesterol 50/30/20 mol% and POPC/POPS/cholesterol 50/30/20 mol%. The peptides fluorescently labeled (see Figure 1 for structure) were added at a concentration of 2 µM and the experiments were performed at room temperature.

[2] = Peptide internalization and Alexa Fluor 488 efflux in POPS GUVs, confocal laser scanning microscopy; type: in vitro ADME; settings: room temperature; for Internalization of peptide in GUVs / Pore formation (efflux of AF 488, lytic effect): POPC/POPS/chol 50/30/20 mol% GUVs, 2 µM peptide, 30 min, CLSM; for Kint, peptide internalization rate constant: GUVs POPC/POPS/chol 50/30/20 mol%, 2 µM fluorescently labeled peptide, 180 mM glucose, 20 mM Hepes pH 7.5, CLSM fluorescence inside GUVs, fit F(t)=1−exp(−kint×t), data from three experiments averaged
Method: as §1, §2, §3
(§4) For kinetic traces, the time course of fluorescence intensity corresponding to peptides and Alexa Fluor 488 inside GUVs was measured. The data from three experiments were averaged and then fitted with a single rising exponential function to determine the values of internalization rates:F(t) = 1 − exp (−kint × t) (1) where t is time and kint is the peptide internalization rate constant.
(§5) The intensity corresponding to release of tracer Alexa Fluor 488 from GUVs in the presence of peptides was also measured to determine the efflux rates, using a single exponential decay function:F(t) = exp (−keff × t) (2) where t is time and keff is the peptide efflux rate constant.

[3] = TAMRA-TAT internalization and Alexa Fluor 488 efflux in GUVs with increasing cholesterol; type: in vitro ADME; settings: 40 mol% chol (POPC/POPE/POPS/chol 30/20/10/40 mol%); CLSM
Method: as §1
The experiments were performed using a confocal laser scanning microscope (Nikon Ti-E, Tokyo, Japan), equipped with LU4 Four-Laser Module with AOTF, a Plan Fluor 40x DIC M N2 objective and a DS-F1camera. […] For each type of experiment, at least 10–15 GUVs with a diameter of 30–40 μm from two independent experiments were analyzed. Successive images were collected using the Nis-Elements Advanced Research imaging software (Nikon) and then quantification of fluorescence was performed using Fiji ImageJ [14]. The resulting data were then analyzed with Origin Pro 8.5 (OriginLab Corporation, Northampton, MA, USA). […]

[4] = Peptide internalization and Alexa Fluor 488 efflux in POPE GUVs, confocal laser scanning microscopy; type: in vitro ADME; settings: room temperature; for Kint, peptide internalization rate constant: GUVs POPC/POPE/chol 50/30/20 mol%, 2 µM fluorescently labeled peptide, 180 mM glucose, 20 mM Hepes pH 7.5, CLSM fluorescence inside GUVs, fit F(t)=1−exp(−kint×t), data from three experiments averaged
Method: as §1, §2, §3, §4, §5

[5] = DOPS and/or DOPE containing GUVs; cited from earlier work
Source text: In GUVs that contain 30 mol% PE, all peptides internalize, but only TAT and NKCS are able to form transmembrane pores through which the fluorescent dyes Alexa Fluor 488 can pass.

[6] = POPC/POPE/chol 50/30/20 mol% GUVs, 2 µM peptide, 30 min, CLSM

## CN(C)c1ccc2c(c1)Oc1cc(N(C)C)ccc1C21OC(=O)c2cc(C(=O)N[C@@H](Cc3ccc(O)cc3)C(=O)NCC(=O)N[C@@H](CCCNC(=N)N)C(=O)N[C@@H](CCCCN)C(=O)N[C@@H](CCCCN)C(=O)N[C@@H](CCCNC(=N)N)C(=O)N[C@@H](CCCNC(=N)N)C(=O)N[C@@H](CCC(N)=O)C(=O)N[C@@H](CCCNC(=N)N)C(=O)N[C@@H](CCCNC(=N)N)C(=O)N[C@@H](CCCNC(=N)N)C(=O)O)ccc21 [TAT, reference compound]
[1]
  Internalization of peptide in GUVs: Neither peptide internalization nor AF 488 efflux can be observed
[2]
  Internalization of peptide in GUVs: internalized
[3]
  Internalization of the peptide: neither the internalization of the peptide nor the efflux of the fluorescent tracer could be registered

## Dy647P1-CGNKRTR [tLyP-1, Dy647P1-labeled tumor homing peptide, truncated linear form of cyclic peptide LyP-1]
[1]
  Efflux of Alexa Fluor 488 from GUVs: Neither peptide internalization nor AF 488 efflux can be observed
[2]
  Kint, peptide internalization rate constant: (0.75 ± 0.27) × 10^−3 s^−1
  Pore formation (efflux of AF 488, lytic effect): just translocate without generating pores
[4]
  Kint, peptide internalization rate constant: (0.78 ± 0.03) × 10^−3 s^−1
[4]; [6]
  Efflux of AF 488 (lytic effect, pore formation): without the release of AF 488

## Dy647P1-LRRISKDILTGKK [NKCS-[15-27]]
[1]
  Efflux of Alexa Fluor 488 from GUVs: Neither peptide internalization nor AF 488 efflux can be observed
  Internalization of peptide in GUVs: Neither peptide internalization nor AF 488 efflux can be observed
[2]
  Kint, peptide internalization rate constant: (0.50 ± 0.23) × 10^−3 s^−1
  Internalization of peptide in GUVs: internalized
  Pore formation (efflux of AF 488, lytic effect): no lytic effect; also recorded: just translocate without generating pores
[4]
  Kint, peptide internalization rate constant: (0.20 ± 0.04) × 10^−3 s^−1
[4]; [6]
  Efflux of AF 488 (lytic effect, pore formation): without the release of AF 488
  Internalization of peptide in GUVs: internalized

## nona-arginine [R9]
[5]
  Pore formation: able to form pores
